SMILES strings stand for the structures. Where only a bound is given, the exact number is not on record here.

Data on 13 compounds can be found in patent US7601716B2, “Pyridopyrazines and derivatives thereof as ALK and c-Met inhibitors” (Cephalon, Inc., priority 2006, dated 2009).

One data set concerns the target T1, NPM-ALK (Homo sapiens, UniProt Q9UM73).
T1 construct: a fusion protein consisting of nucleophosmin (NMP) and the intracellular domain of ALK; the other entry of the earlier key: NPM1 (P06748, Nucleophosmin)
The data set can be described thus: ALK Cellular Assay (phospho-NPM-ALK immunoblot / ALK tyrosine phosphorylation ELISA). In kind it is cell-based. Conditions: for inhibition at 1 µM: NPM-ALK, 1 μM compound, read-out: ALK Cellular Activity Inhibition Score at 1 μM. As to the method: Immunoblotting of phospho-NPM-ALK and total NPM-ALK from cell lysates was carried out according to the protocols provided by the antibody suppliers. In brief, after treatment of Example compounds, cells were lysed in Frak lysis buffer [10 mM Tris, pH 7.5, 1% Triton X-100, 50 mM sodium chloride, 20 mM sodium fluoride, 2 mM sodium pyrophosphate, 0.1% BSA, plus freshly prepared 1 mM activated sodium vanadate, 1 mM dithiothreitol (#165680050, ARCOS Organics, Geel, Belgium), and 1 mM PMSF (#837091, Boehringer Mannheim Biochemicals, Indianapolis, Ind.), protease inhibitors cocktail III (#539134-1Set, Calbiochem, 1:100 dilution)]. After brief sonication, the lysates were cleared by centrifugation, mixed with sample buffer and subjected to SDS-PAGE. Following transfer to membranes, the membranes were blotted with either rabbit phospho-NPM-ALK(Y664) (Cat^#3341) or ALK antibody (Cat^#3342) from Cell Signaling Technology (Beverly, Mass.), and then the HRP-conjugated goat anti-rabbit antibodies (Santa Cruz, Calif.) after washed in TBS/0.2% Tween-20. The protein bands were visualized with ECL Western Blotting detection reagents (RPN2106, Amersham Biosciences, Buckinghamshire, UK) and quantitated with gel-pro analyzer 3.1 software.
To measure ALK tyrosine phosphorylation in cells with an ELISA assay, fluoronunc plates (Cat^#437796, Nalge Nunc, Rochester, N.Y.) were pre-coated with goat anti-mouse IgG, and incubated with the capture mouse ALK antibody (Cat^#35-4300, Zymed, Seattle, Wash.) diluted 1:1000 in Superblock (Pierce, Rockford, Ill.). Following blocking, cell lysates were added to plates and incubated overnight at 4° C. Plates were incubated with the detecting antibody, anti-phospho-ALK (Y664) (Cell Signaling Technology), diluted at 1:2000, followed by incubation with goat anti-rabbit-IgG alkaline phosphatase to amplify the detection. Wells were exposed to the fluorogenic substrate 4-MeUP (#3368-04-5, Calbiochem) and the signal quantified using a CytoFluor® (series 4000) Fluorescence Multi-Well Plate Reader (Applied Biosystems, Foster City, Calif.).

Data set [1] addresses baculovirus-expressed ALK (Homo sapiens, UniProt Q9UM73). The data set is described as follows: ALK Kinase Assay (ELISA/TRF, PLC-γ substrate). Further: 1 µM ATP (Km level). The data set is classed as biochemical. The note with it: read-out: ALK Kinase Inhibition (IC50). The gist of the method: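 IC50 values fitted by nonlinear sigmoidal regression (variable slope) of percent inhibition against log compound concentration. Read-out was TRF of Eu-N1 anti-phosphotyrosine antibody bound to phosphorylated, plate-coated GST-PLC-γ (10 µg/mL). Kinase reaction used ALK at 30 ng/ml for 15 min at 37 °C.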
For orientation: In an ELISA, binding on a coated surface is turned into a signal by an enzyme label.

Data set [2] has as its target T2, c-Met (cytoplasmic domain) (Homo sapiens, UniProt P08581).
T2 construct: Reactions were initiated with 30 ng/mL c-Met (cytoplasmic domain, Invitrogen Corporation #PV3143); purchased Invitrogen Corporation PV3143
The data set is described as follows: c-Met Kinase Assay (ELISA/TRF, PLC-γ substrate). The data set is classed as biochemical. The note with it: 3 μM ATP (Km level); read-out: c-Met Kinase Inhibition (IC50). In short, it runs like this: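 Readout is TRF of europium anti-phosphotyrosine (PT66) bound to GST–PLC-γ substrate coated at 10 μg/mL, after a 15 min, 37 °C reaction started with 30 ng/mL c-Met cytoplasmic domain. Percent inhibition plotted against log compound concentration and fitted (variable slope) for IC50.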

Data set [3] deals with T3, c-Met (phospho-c-Met) in HT29 cells (Homo sapiens, UniProt P08581).
T3 construct: endogenous in cells; host or cells: HT29, A549 (HGF-stimulated), GTL-16
T3 sequence (P08581 25-1390): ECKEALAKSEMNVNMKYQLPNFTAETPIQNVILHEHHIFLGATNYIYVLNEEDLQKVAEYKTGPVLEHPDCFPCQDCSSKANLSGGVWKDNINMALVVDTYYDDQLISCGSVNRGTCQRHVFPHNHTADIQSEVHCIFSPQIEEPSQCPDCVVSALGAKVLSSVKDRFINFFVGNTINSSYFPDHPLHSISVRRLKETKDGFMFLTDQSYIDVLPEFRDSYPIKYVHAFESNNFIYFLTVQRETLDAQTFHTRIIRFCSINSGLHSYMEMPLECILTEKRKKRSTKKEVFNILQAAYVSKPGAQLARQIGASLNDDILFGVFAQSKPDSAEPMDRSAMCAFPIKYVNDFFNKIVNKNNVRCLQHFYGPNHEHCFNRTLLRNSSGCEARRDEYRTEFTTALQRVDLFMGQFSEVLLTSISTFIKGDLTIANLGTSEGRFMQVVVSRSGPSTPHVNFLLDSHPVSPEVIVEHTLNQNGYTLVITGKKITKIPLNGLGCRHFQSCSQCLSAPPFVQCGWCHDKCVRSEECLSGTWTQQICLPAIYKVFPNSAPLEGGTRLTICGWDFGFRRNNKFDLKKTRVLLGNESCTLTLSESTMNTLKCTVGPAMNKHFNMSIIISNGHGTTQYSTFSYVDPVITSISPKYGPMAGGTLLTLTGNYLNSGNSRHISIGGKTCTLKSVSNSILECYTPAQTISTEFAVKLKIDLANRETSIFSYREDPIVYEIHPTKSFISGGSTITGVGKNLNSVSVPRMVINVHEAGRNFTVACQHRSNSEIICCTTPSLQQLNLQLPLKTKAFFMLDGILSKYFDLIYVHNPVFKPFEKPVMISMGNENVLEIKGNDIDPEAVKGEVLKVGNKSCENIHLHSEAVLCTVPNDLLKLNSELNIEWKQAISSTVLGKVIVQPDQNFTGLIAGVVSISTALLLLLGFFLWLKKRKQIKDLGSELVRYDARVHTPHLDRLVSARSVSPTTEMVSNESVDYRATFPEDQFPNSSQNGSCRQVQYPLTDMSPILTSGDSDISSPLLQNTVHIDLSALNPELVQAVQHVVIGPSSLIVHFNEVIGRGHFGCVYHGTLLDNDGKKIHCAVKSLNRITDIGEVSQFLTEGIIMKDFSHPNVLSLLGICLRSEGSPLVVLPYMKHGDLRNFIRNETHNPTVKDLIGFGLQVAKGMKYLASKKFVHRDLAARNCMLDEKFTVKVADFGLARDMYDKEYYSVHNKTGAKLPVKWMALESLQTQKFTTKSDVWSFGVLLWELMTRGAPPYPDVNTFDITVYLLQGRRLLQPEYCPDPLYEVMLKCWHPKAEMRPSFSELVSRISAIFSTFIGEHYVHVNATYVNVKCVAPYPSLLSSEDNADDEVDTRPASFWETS
The data set is described as follows: c-Met Cellular Activity/Autophosphorylation Assay, HT29 cells. The data set is classed as cell-based. As to the method:
HT29 and GTL-16 cells were serum starved for one hour in media containing 0.05% BSA and varying concentrations of Example compounds (1-10 μM). A549 cells were serum starved overnight in media containing 0.05% BSA then treated for one hour with Example compounds followed by a 15 minute stimulation with 50 ng/mL HGF (Peprotech, Rocky Hill, N.J.), respectively. Samples were resolved by electrophoresis on a 3-8% Tris-Acetate gel (40 ma/gel) and then transferred to a nitrocellulose membrane. Membranes were blocked for one hour at room temperature in Odyssey Blocking Buffer (Licor #927-40000) diluted 1:1 with 1×TBS. Membranes were then co-incubated overnight at 4° C. with primary antibodies [total Met (Cell Signaling, #3127) and Phospho-Met (Biosource, #44-888G) 1:1000 each in Odyssey Blocking Buffer diluted 1:1 with 1×TBS-T 0.05%]. The next day, membranes were washed and co-incubated with secondary antibodies [Goat anti mouse IRDye800 (Rockland, #610-132-121) and Goat anti rabbit Alexa fluor 700 (Molecular Probes, #A21038) 1:10,000] in Odyssey Blocking Buffer diluted 1:1 with 1×TBS-T 0.05% for one hour at room temperature protected from light. Blots were then washed and read on the Odyssey Infrared Imager. Total c-Met signal was visualized at 800 nm detection and phospho-c-Met signal was visualized at 700 nm detection.

T2 sequence (P08581 956-1390 limits assumed): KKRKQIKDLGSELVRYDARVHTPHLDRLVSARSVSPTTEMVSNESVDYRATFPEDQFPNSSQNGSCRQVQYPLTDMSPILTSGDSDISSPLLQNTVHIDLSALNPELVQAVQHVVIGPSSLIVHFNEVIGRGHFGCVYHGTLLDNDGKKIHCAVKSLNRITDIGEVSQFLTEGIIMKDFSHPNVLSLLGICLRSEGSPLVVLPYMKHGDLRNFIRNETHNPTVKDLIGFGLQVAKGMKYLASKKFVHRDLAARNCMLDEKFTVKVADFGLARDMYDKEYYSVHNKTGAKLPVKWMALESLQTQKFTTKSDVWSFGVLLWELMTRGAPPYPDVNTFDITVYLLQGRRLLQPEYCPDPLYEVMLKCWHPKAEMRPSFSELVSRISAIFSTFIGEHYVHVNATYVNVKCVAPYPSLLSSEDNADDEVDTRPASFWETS
Sequence of baculovirus-expressed ALK (Q9UM73 19-1620): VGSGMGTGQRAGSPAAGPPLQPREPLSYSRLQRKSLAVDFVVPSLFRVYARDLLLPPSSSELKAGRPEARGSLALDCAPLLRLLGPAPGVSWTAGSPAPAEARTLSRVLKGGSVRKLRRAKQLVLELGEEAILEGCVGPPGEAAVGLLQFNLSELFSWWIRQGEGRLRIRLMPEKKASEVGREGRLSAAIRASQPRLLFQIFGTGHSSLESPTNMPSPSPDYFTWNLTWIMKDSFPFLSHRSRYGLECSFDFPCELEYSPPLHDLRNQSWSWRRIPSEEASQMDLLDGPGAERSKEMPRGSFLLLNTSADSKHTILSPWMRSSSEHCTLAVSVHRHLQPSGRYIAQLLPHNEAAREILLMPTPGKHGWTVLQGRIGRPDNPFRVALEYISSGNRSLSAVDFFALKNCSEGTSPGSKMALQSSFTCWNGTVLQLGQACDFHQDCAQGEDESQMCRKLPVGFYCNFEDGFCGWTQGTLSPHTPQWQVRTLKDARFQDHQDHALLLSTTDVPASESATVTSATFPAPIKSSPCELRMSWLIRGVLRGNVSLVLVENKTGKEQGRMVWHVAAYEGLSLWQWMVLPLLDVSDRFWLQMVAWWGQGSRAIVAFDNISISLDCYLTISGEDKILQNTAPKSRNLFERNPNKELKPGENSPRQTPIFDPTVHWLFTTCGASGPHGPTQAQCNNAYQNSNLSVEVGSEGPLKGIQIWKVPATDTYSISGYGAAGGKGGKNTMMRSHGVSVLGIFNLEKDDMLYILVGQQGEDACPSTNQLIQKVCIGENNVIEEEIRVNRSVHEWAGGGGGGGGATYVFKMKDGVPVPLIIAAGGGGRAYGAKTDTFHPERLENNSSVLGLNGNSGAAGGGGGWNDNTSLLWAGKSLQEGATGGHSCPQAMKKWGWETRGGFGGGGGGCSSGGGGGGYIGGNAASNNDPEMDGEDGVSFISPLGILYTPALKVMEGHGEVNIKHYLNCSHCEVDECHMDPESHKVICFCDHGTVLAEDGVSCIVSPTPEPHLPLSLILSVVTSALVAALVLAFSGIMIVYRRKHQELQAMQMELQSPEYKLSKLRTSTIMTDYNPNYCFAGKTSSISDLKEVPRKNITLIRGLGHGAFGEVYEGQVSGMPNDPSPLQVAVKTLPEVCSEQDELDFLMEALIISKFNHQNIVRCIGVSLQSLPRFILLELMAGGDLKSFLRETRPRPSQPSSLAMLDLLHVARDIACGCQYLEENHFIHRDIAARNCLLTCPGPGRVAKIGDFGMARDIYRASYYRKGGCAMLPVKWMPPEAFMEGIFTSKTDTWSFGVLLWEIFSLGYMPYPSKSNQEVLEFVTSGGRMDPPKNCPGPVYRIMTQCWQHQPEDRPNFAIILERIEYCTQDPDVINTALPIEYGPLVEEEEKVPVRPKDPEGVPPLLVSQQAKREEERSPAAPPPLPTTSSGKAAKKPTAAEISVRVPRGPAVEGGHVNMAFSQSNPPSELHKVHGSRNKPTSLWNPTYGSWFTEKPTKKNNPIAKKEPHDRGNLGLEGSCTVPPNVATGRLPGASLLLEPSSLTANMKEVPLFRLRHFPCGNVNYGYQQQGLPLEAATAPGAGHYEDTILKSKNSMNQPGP
T1 sequence (Q9UM73 with tags, fused parts or gaps): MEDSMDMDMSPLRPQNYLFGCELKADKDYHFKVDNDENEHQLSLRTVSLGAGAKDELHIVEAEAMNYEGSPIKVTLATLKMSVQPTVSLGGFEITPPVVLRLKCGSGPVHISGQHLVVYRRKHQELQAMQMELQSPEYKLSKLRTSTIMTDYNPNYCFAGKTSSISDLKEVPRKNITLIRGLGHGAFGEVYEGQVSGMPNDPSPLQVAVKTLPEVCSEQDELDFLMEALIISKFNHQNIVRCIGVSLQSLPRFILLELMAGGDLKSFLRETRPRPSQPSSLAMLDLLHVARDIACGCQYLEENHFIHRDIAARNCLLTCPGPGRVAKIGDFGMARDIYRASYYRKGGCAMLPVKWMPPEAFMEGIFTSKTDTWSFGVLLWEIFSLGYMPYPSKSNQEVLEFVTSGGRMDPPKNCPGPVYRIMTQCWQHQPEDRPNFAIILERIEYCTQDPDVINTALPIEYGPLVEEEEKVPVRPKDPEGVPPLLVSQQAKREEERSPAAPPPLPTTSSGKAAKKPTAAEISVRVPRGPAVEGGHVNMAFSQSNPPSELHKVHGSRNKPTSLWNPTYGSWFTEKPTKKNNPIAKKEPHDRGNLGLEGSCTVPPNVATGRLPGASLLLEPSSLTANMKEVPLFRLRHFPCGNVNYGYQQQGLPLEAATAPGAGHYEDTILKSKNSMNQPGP

Usually melting point stands for the temperature, or range, at which the solid turns liquid. What is called inhibition is the change of the read-out against control, counted positive when it falls. Usually IC50 stands for the concentration that inhibits the measured activity by half. Compound `O=C1CNc2ncc(-c3ccc(NS(=O)(=O)CCN4CCCC4)cc3)cc2N1Cc1cc(F)ccc1F` [Example 48, 2-Pyrrolidin-1-yl-ethanesulfonic acid{4-[1-(2,5-difluorobenzyl)-2-oxo-1,2,3,4-tetrahydropyrido[2,3-b]pyrazin-7-yl]phenyl}-amide] gave a melting point above 300 °C. For the same compound, the inhibition at 1 µM at NPM-ALK was 26 to 50%. In addition, the IC50 in data set [1] fell in the range of 100 to 1000 nM. Further, in data set [2], the IC50 lay in the range of 1000 to 10000 nM.
As to `CN1CCN(c2ncc(-c3cnc4c(c3)N(Cc3c(F)ccc(F)c3Cl)CCN4)cn2)CC1` [Example 106, 1-(2-Chloro-3,6-difluorobenzyl)-7-[2-(4-methylpiperazin-1-yl)-pyrimidin-5-yl]-1,2,3,4-tetrahydropyrido[2,3-b]pyrazine], the melting point is 194 to 195 °C. For the same compound, the IC50 at NPM-ALK was at most 250 nM. Further, the IC50 in data set [1] is below 100 nM. For the same compound, the IC50 in data set [2] fell in the range of 1000 to 10000 nM.
In the case of `O=C(c1ccc(-c2cnc3c(c2)N(Cc2cc(Cl)ccc2C(F)(F)F)CCN3)cc1)N1CCC(N2CCCC2)CC1` [Example 117, {4-[1-(5-Chloro-2-trifluoromethylbenzyl)-1,2,3,4-tetrahydropyrido[2,3-b]pyrazin-7-yl]phenyl}-(4-(pyrrolidin-1-yl)piperidin-1-yl)methanone], the inhibition at 1 µM in data set [3] (HT-29, 1 μM compound, read-out: c-Met autophosphorylation inhibition score, HT29 Cells (1 μM)) was 0 to 25%. In addition, the inhibition at 3 µM in data set [3] (HT-29, 3 μM compound, read-out: c-Met autophosphorylation inhibition score, HT29 Cells (3 μM)) was in the range of 0 to 25%. The IC50 against NPM-ALK is at most 250 nM; in data set [1], below 100 nM; in data set [2], 1000 to 10000 nM.
In the case of `FC(F)(F)c1ccc(Cl)cc1CN1CCNc2ncc(-c3ccnc(N4CCNCC4)c3)cc21` [Example 198, 1-[5-Chloro-2-(trifluoromethyl)benzyl]-7-(2-piperazin-1-yl-pyridin-4-yl)-1,2,3,4-tetrahydro-pyrido[2,3-b]pyrazine], the melting point was 189 °C. For the same compound, at NPM-ALK, the IC50 was at most 250 nM. The IC50 in data set [1] is below 100 nM. In addition, the IC50 in data set [2] is 100 to 1000 nM.
On to `FC(F)(F)c1ccc(Cl)cc1CN1CCNc2ncc(-c3cn[nH]c3)cc21` [Example 200, 1-[5-Chloro-2-(trifluoromethyl)benzyl]-7-(1H-pyrazol-4-yl)-1,2,3,4-tetrahydro-pyrido[2,3-b]pyrazine], for which the melting point was 271 °C. The compound further showed an IC50 against NPM-ALK of 751 to 1000 nM. Further, the IC50 in data set [1] was in the range of 100 to 1000 nM. The IC50 in data set [2] was in the range of 1000 to 10000 nM.
Taken in the same sequence, the figures for `CC(=O)N1CCN(c2cc(-c3cnc4c(c3)N(Cc3cc(Cl)ccc3C(F)(F)F)CCN4)ccn2)CC1` [Example 199, 1-[4-(4-{1-[5-Chloro-2-(trifluoromethyl)benzyl]-1,2,3,4-tetrahydro-pyrido[2,3-b]pyrazin-7-yl}pyridin-2-yl)piperazin-1-yl]ethanone] were 241 °C, at most 250 nM, below 100 nM and 1000 to 10000 nM.
For `O=C(c1ccc(-c2cnc3c(c2)N(Cc2cc(Cl)ccc2Cl)C(=O)CN3)cc1)N1CCC(N2CCCC2)CC1` [Example 156, 1-(2,5-Dichlorobenzyl)-7-[4-(4-(pyrrolidin-1-yl)piperidine-1-carbonyl)phenyl]-3,4-dihydro-1H-pyrido[2,3-b]pyrazin-2-one], in that order: above 200 °C, 251 to 500 nM, below 100 nM and 100 to 1000 nM.
Compound `O=C1CNc2ncc(-c3ccc(C(=O)N4CCC[C@H]4CN4CCCC4)cc3)cc2N1Cc1c(Cl)cccc1Cl` [Example 141, S-1-(2,6-Dichlorobenzyl)-7-[4-((2-pyrrolidin-1-yl)methylpyrrolidine-1-carbonyl)phenyl]-3,4-dihydro-1H-pyrido[2,3-b]pyrazin-2-one] had a melting point of 188 °C. For the same compound, at NPM-ALK, the inhibition at 1 µM lay in the range of 51 to 75%. Further, the IC50 in data set [1] was in the range of 100 to 1000 nM. The IC50 in data set [2] was in the range of 1000 to 10000 nM.
`O=C(c1ccc(-c2cnc3c(c2)N(Cc2cc(F)ccc2F)CCN3)cc1)N1CCC[C@H]1CN1CCCC1` [Example 65, {4-[1-(2,5-Difluorobenzyl)-1,2,3,4-tetrahydropyrido[2,3-b]pyrazin-7-yl]phenyl}-((S)-2-((pyrrolidin-1-yl)methyl)pyrrolidin-1-yl)methanone] returned a melting point of 143 to 144 °C. This compound also came in with an IC50 on NPM-ALK of at most 250 nM. In data set [1], the IC50 was below 100 nM. In addition, the IC50 in data set [2] fell in the range of 1000 to 10000 nM.
`O=C(O)c1ccc(-c2cnc3c(c2)N(Cc2c(F)ccc(F)c2Cl)C(=O)CN3)cc1` [Example 6, 4-[1-(2-Chloro-3,6-difluorobenzyl)-2-oxo-1,2,3,4-tetrahydropyrido[2,3-b]pyrazin-7-yl]benzoic acid] gave a melting point above 300 °C. In addition, at NPM-ALK, the inhibition at 1 µM lay within 0 to 25%. Further, the IC50 in data set [1] lay within 100 to 1000 nM. Moreover, the IC50 in data set [2] was in the range of 10000 to 100000 nM.
On to `O=C1CNc2ncc(-c3ccc(C(=O)N4CCC[C@H]4CN4CCCC4)cc3)cc2N1Cc1cc(F)ccc1F` [Example 57, 1-(2,5-Difluorobenzyl)-7-[4-((S)-2-[(pyrrolidin-1-yl)methyl]pyrrolidine-1-carbonyl)phenyl]-3,4-dihydro-1H-pyrido[2,3-b]pyrazin-2-one], for which the melting point stood at 125 °C. On NPM-ALK, the inhibition at 1 µM was 0 to 25%. In data set [1], the IC50 fell in the range of 100 to 1000 nM. The IC50 in data set [2] is 100 to 1000 nM.
With `O=C(NCCN1CCCC1)c1ccc(-c2cnc3c(c2)N(Cc2cc(F)ccc2F)C(=O)CN3)cc1` [Example 58, 4-[1-(2,5-Difluorobenzyl)-2-oxo-1,2,3,4-tetrahydropyrido[2,3-b]pyrazin-7-yl]-N-(2-pyrrolidin-1-yl-ethyl)benzamide], the melting point was 235 °C (dec.). Also, the inhibition at 1 µM on NPM-ALK lay in the range of 0 to 25%. The IC50 in data set [1] was 100 to 1000 nM. Further, the IC50 in data set [2] lay in the range of 10000 to 100000 nM.
In turn, `O=C(c1ccc(-c2cnc3c(c2)N(Cc2cc(F)ccc2F)CCN3)cc1)N1CCC(N2CCCC2)CC1` [Example 66, {4-[1-(2,5-Difluorobenzyl)-1,2,3,4-tetrahydropyrido[2,3-b]pyrazin-7-yl]phenyl}-(4-(pyrrolidin-1-yl)piperidin-1-yl)methanone] gave a melting point of 202 to 204 °C. On NPM-ALK, this compound registered an IC50 of at most 250 nM. Moreover, the IC50 in data set [1] was below 100 nM. Besides, the IC50 in data set [2] was 1000 to 10000 nM.
